Source: patent US10597388B2, “Pyridazinone herbicides” (FMC CORPORATION, priority 2014, dated 2020)

How the values were obtained:
Type in all cases: in vivo
[1] = tested on: sedge, umbrella (small-flower umbrella sedge, Cyperus difformis); assay: Test B flooded paddy test; details: 250 g ai/ha, Flood; visual rating on scale of 0 to 100 where 0 is no effect and 100 is complete control; 13 to 15 d after treatment
In short: (§1)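 Ratings use a 0-100 visual scale, where 100 is complete control, and compare treated plants with controls after 13 to 15 d of greenhouse growth. Compound went straight into paddy water kept 3 cm over the soil surface, applied to seedlings at the 2-leaf stage.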

[2] = tested on: ducksalad (Heteranthera limosa); assay: Test B flooded paddy test; details: 250 g ai/ha, Flood; visual rating on scale of 0 to 100 where 0 is no effect and 100 is complete control; 13 to 15 d after treatment
In short: as §1

[3] = tested on: barnyardgrass (Echinochloa crus-galli); assay: Test B flooded paddy test; details: 250 g ai/ha, Flood; visual rating on scale of 0 to 100 where 0 is no effect and 100 is complete control; 13 to 15 d after treatment
In short: as §1

rice (Oryza sativa) = assay: Test B flooded paddy test; details: 250 g ai/ha, Flood; visual rating on scale of 0 to 100 where 0 is no effect and 100 is complete control; 13 to 15 d after treatment
In short: as §1

[4] = tested on: chickweed (common chickweed, Stellaria media); assay: Test C greenhouse herbicide test, postemergence
In short: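 Test chemicals were applied postemergence to greenhouse plants at the 1- to 4-leaf stage (2–18 cm tall) growing in peat/vermiculite medium. After 13–15 d, injury was rated visually against untreated controls on a 0–100 scale (0 = no effect, 100 = complete control).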

[5] = tested on: galium (catchweed bedstraw, Galium aparine); assay: Test A greenhouse herbicide test, postemergence
In short: (§2)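 Seedlings in a loam soil and sand mix received formulated compound postemergence at the one- to two-leaf stage. Greenhouse holding lasts approximately 10 d, then injury is scored visually relative to untreated plants, 0 meaning no effect and 100 complete control.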

[6] = tested on: blackgrass (Alopecurus myosuroides); assay: Test A greenhouse herbicide test, postemergence
In short: as §2

[7] = tested on: barnyardgrass (Echinochloa crus-galli); assay: Test A greenhouse herbicide test, pre- and postemergence
In short: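 Visual injury ratings, 0 (no effect) to 100 (complete control), versus untreated plants after roughly 10 d in a greenhouse. Compounds, formulated in a surfactant-containing non-phytotoxic solvent, were sprayed on loam–sand soil after sowing (pre) or on one- to two-leaf plants 2–10 cm tall (post).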

[8] = 125 g ai/ha, 0 to 100 scale, 0 no effect, 100 complete control
[9] = 500 g ai/ha, visual rating after approx. 10 d, 0 to 100 scale (0 no effect, 100 complete control)

For `CSCC(=O)Oc1c(C)nn(C)c(=O)c1-c1cccc2ccccc12` [Compound 171], the “Plant response rating, Sedge, Umbrella” value [1] was 60, the “Plant response rating, Ducksalad” value [2] was 0 and the “Plant response rating, Barnyardgrass” value [3] was 0. The “Plant response rating, Rice” value (rice (Oryza sativa)) was 0, the “Plant response rating, Chickweed” value ([4]; Postemergence, 31 g ai/ha, scale 0 to 100 (0 no effect, 100 complete control)) was 90 and the “Chickweed plant response rating” value ([4]; Postemergence, 62 g ai/ha, 0 to 100 scale (0 no effect, 100 complete control)) was 90. For the same compound, the “Plant response rating, Chickweed” value ([4]; Postemergence, 250 g ai/ha, scale 0 to 100, 0 is no effect, 100 is complete control) was 95, the “Chickweed plant response rating” value ([4]; postemergence, 125 g ai/ha, scale 0 to 100, 0 no effect, 100 complete control) was 90 and the “Plant response rating, Galium” value [5, 8] was 90. For the same compound, the “Plant response rating, Galium” value [5, 9] was 100, the “Plant response rating, Blackgrass” value [6, 8] was 80 and the “Plant response rating, Blackgrass” value [6, 9] was 90. For the same compound, the “Plant response rating, Barnyardgrass” value ([7]; Postemergence, 125 g ai/ha, 0 to 100 scale, 0 no effect, 100 complete control) was 40, the “Plant response rating, Barnyardgrass” value ([7]; Postemergence, 500 g ai/ha, visual rating after approx. 10 d, 0 to 100 scale (0 no effect, 100 complete control)) was 90 and the “Plant response rating, Barnyardgrass” value ([7]; Preemergence, 125 g ai/ha, visual injury rating, 0 to 100 scale (0 no effect, 100 complete control), approx. 10 d) was 70. The “Plant response rating, Barnyardgrass” value ([7]; Preemergence, 500 g ai/ha, 0 to 100 scale where 0 is no effect and 100 is complete control) was 100.
